The record followed here is patent publication US20080279829A1, “Phenyl-(4-Phenyl-Pyrimidin-2-Yl)-Amines For Enhancing Immunotolerance” (priority 2005, published 2008).

The test system of this experiment is BALB/c diabetic female mice with C57BI/6 islet allograft. In words: cellular therapy with in vitro TEST COMPOUND-treated BM-DC in islet allograft transplantation. Format: in vivo. The note with it: injected i.v. one day before transplantation. The method, then:
To further investigate the effect of TEST COMPOUND on murine DCs bone marrow cells from BALB/c mice are differentiated with GM-CSF into bone marrow derived DCs (BM-DCs) in the presence or absence of TEST COMPOUND (20 nM). BM-DC are left immature or activated with LPS.
BM-DC are injected (3×105, i.v.) into BALB/c diabetic female mice one day before C57BI/6 islet allograft transplantation. Graft survival is monitored by weekly measurement of blood glucose level (*two-tailed t test).

In the case of `FC(F)(F)c1ccc(Nc2nccc(-c3cccc(Cl)c3)n2)cc1` [Compound B, N-[4-(3-Chloro-phenyl)-pyrimidin-2-yl]-N-(4-trifluoromethyl-phenyl)-amine], the “islets allograft acceptance after injection of LPS-activated (mature) treated recipient type BM-DC” value is “significantly prevents islet graft rejection”.
